# According to publication PMC11359809, “Probing the molecular basis for signal transduction through the Zinc-Activated Channel (ZAC)” (Biochemical pharmacology, 2021):
# “And” between values parts separate entries of the source, which are not always exact repeats. Equal entries are not always repeated.
# How the values were obtained:
# WT m5-HT3AR = biological target: T1, WT m5-HT3AR (Mus musculus, UniProt P23979); assay: TEVC in Xenopus oocytes expressing WT m5-HT3AR; type: cell-based
# T1 construct: expressed in transfected cells; host or cells: Xenopus oocytes injected with cRNA (pUNIV vector)
# T1 sequence (P23979 24-489): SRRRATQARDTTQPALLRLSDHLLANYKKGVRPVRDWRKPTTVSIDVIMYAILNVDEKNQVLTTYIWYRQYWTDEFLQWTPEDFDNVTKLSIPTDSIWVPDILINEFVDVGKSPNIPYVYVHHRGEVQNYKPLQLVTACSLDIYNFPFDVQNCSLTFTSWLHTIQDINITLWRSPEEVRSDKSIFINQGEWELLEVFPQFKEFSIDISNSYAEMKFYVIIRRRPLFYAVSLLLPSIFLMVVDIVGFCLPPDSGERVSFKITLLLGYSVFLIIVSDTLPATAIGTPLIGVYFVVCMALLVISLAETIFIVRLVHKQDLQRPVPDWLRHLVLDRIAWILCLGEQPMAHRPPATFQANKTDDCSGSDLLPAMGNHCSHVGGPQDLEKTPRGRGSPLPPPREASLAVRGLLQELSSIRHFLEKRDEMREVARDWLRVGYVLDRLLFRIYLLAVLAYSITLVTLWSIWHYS
# Protocol: (§1) The recordings were performed at room temperature.
# (§2) Analysis of the data from the TEVC recordings were performed using Clampfit software version 10.5 (Molecular Devices, Crawley, UK) and GraphPad Prism version 7.0c (GraphPad Software, La Jolla, CA). Unless otherwise stated, the inward currents induced by agonists in oocytes were normalized to the maximal response elicited by a specific agonist (agonist Imax) on each oocyte. Concentration-response and concentration-inhibition curves were fitted in GraphPad Prism by nonlinear regression using the equation for sigmoidal dose-response with variable slope. Each data point represents the mean ± S.E.M. value of recordings performed on at least five oocytes in total from at least two different batches. For the data where statistical analysis was performed, a one-way ANOVA was used. The null hypothesis was rejected at P < 0.05, and the differences between the means were analyzed by Tukey’s multiple comparisons test.
# m5-HT3A/ZAC = biological target: T2, m5-HT3A/ZAC (Mus musculus / Homo sapiens, UniProt P23979); assay: TEVC in oocytes expressing m5-HT3A/ZAC chimera; type: cell-based
# T2 sequence (P23979 24-246): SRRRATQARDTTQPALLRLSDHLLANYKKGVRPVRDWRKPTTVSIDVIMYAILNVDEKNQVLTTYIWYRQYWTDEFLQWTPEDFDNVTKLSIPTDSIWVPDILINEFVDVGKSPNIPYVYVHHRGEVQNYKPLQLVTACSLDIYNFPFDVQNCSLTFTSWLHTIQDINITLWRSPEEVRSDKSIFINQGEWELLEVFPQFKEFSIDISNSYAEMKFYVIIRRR
# T2 sequence (Q401N2 231-412 partner): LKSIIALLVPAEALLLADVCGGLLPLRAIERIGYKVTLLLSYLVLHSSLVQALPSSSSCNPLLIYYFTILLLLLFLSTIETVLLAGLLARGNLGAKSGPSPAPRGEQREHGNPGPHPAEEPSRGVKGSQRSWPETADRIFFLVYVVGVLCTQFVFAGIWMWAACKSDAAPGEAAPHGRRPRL
# Description: (§3) The construction of the ZAC-pUNIV plasmid (encoding for the human WT ZAC that contains a Thr in position 128) has been described previously. The m5-HT3A and hα1 GlyR cDNAs were subcloned from their original vectors into pUNIV (Addgene, Watertown, MA) using NheI and EcoRI as restriction enzymes. […] The C-terminus modifications in these four chimeras were introduced in their cDNAs in the same way. Point mutations were introduced in cDNAs by use of the QuikChange mutagenesis kit (Stratagene, San Diego, CA). The validity and absence of unwanted mutations in the constructed cDNAs was verified by DNA sequencing (Macrogen Europe, Amsterdam, The Netherlands).
# (§4) All cDNAs used for cRNA synthesis were inserted in the pUNIV vector. The cDNAs were linearized and subsequently transcribed and capped using the mMessage mMachine T7 RNA transcription kit (Ambion, Waltham, MA). […] Oocytes were incubated in a sterile modified Barth’s solution [88 mM NaCl, 1 mM KCl, 15 mM HEPES (pH 7.5), 2.4 mM NaHCO3, 0.41 mM CaCl2, 0.82 mM MgSO4, 0.3 mM Ca(NO3)2, 100 U/ml penicillin and 100 μg/ml streptomycin] at 16–18 °C. Based on experience gained with WT ZAC in a recent study, all TEVC recordings were performed two days after cRNA injection.
# (§5) On the day of the TEVC recording, all compound dilutions were prepared in a saline solution [115 mM NaCl, 2.5 mM KCl, 10 mM MOPS (pH 7.5), 1.8 mM CaCl2, 0.1 mM MgCl2], and pH was adjusted to 7.5 (if needed). Oocytes were placed in a recording chamber continuously perfused with this saline solution, and the compounds were applied in the perfusate. Both voltage and current electrodes were agar-plugged with 3 M KCl with a resistance of 0.2–2.0 MΩ. Oocytes were voltage-clamped at −50 mV (except in the studies of the chimeras and their parent receptors where they were clamped at −60 mV, section 3.1), by a Gene Clamp 500B amplifier, and current signals were digitized by a Digidata 1322A (both from Axon Instruments, Union City, CA). Currents were recorded using pCLAMP 10 (Molecular Devices, Sunnyvale, CA). The recordings were performed at room temperature.
# (§6) In all recordings, compounds or compound combinations were applied in the bath until the peak current decayed to a steady state (up to 30 s). […] The antagonist properties of compounds were determined by pre-application of the compound to the perfusate for 30 s followed by co-application of the compound and the agonist. In all recordings, washes of 1–5 min were executed between the ligand applications, the length of the washes depending on the agonist concentrations used and on the return to baseline current amplitude.
# as §2
# m5-HT3A^FPR/ZAC = assay: TEVC in oocytes, Cys-loop modified chimera m5-HT3A^FPR/ZAC; type: cell-based, mouse/human; details: data not shown
# Protocol: as §1
# To probe the effects of exchanges of regions involved in the ECD/TMD cross-talk between the two CLRs fused in a chimera on its functionality, we constructed 12 additional chimeras, three for each of the four original chimeras (Fig. 1A). Inspired by the similar modifications that have been introduced in a functional GLIC/hα1-Gly chimera, we swapped one or both of two specific regions: the three-residue FPX (Phe-Pro-X) motif in the Cys-loop of the ECD (FPR, FPF and […] in ZAC, m5-HT3A and hα1 GlyR, respectively), which is known to protude into proximity of the M2-M3 linker during the ECD/TMD cross-talk, and the extracellular C-terminus of the TMD, which differs substantially in both amino acid sequence and length between ZAC and the two classical CLRs combined with it in the chimeras (Fig. 4B). […] In light of this, it was not surprising that the four chimeras comprising exchanges of both the FPX motif and the C-terminus also were non-functional (data not shown).
# hα1-Gly/ZAC-II = details: Gly 1 mM; data not shown
# Description: as §3
# All cDNAs used for cRNA synthesis were inserted in the pUNIV vector. […]
# On the day of the TEVC recording, all compound dilutions were prepared in a saline solution [115 mM NaCl, 2.5 mM KCl, 10 mM MOPS (pH 7.5), 1.8 mM CaCl2, 0.1 mM MgCl2], and pH was adjusted to 7.5 (if needed). […] Currents were recorded using pCLAMP 10 (Molecular Devices, Sunnyvale, CA). […]
# In all recordings, compounds or compound combinations were applied in the bath until the peak current decayed to a steady state (up to 30 s). […] The antagonist properties of compounds were determined by pre-application of the compound to the perfusate for 30 s followed by co-application of the compound and the agonist. […]
# hα1-Gly/ZAC = assay: TEVC in oocytes expressing hα1-Gly/ZAC chimera; type: cell-based, human; details: 1 mM Gly; n = 5
# Protocol: as §1, §2
# Initially, we constructed four chimeric subunits fusing the ZAC ECD or TMD-ICD with the complementary domains from either the m5-HT3A or the hα1 GlyR subunit: ZAC/m5-HT3A, m5-HT3A/ZAC, ZAC/hα1-Gly and hα1-Gly/ZAC (Fig. 1A). […] (Fig. 1A).
# WT hα1 GlyR = biological target: T3, WT hα1 GlyR (Homo sapiens, UniProt P23415); type: cell-based
# T3 construct: expressed in transfected cells; host or cells: Xenopus oocytes injected with cRNA (pUNIV vector)
# T3 sequence (P23415 29-457): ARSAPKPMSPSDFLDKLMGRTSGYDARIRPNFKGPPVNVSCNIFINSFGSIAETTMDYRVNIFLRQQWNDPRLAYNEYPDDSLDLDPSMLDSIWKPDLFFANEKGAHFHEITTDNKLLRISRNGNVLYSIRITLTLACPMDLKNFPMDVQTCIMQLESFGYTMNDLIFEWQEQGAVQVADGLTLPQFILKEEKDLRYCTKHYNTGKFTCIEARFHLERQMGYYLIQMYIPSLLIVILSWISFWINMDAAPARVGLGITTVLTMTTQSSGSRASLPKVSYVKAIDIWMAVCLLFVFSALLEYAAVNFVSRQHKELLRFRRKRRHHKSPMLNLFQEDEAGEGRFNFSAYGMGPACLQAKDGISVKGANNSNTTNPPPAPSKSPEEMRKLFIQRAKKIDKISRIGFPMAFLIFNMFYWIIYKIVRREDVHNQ
# Description: as §3, §4, §5, §6
# as §2, with “For the data where statistical analysis was performed, a one-way ANOVA was used.” left out
# [1] = sustained (4 min) application of 100 μM 5-HT
# [2] = sustained (4 min) application of 3 μM 5-HT
"Imax (current amplitude evoked by saturating agonist) (WT m5-HT3AR; 300 μM 5-HT, n = 7) [μA]","nH ± S.E.M. (Hill slope) (WT m5-HT3AR; agonist, n = 7)","Iresidual, 4 min (WT m5-HT3AR; [1])",Δtstart-to-peak (WT m5-HT3AR; [1]) [s],"time to complete return to baseline (WT m5-HT3AR; sustained application of 100 μM 5-HT, mean ± S.E.M., n = 7) [s]","Imax (current amplitude evoked by saturating agonist) (m5-HT3A/ZAC; 3 μM 5-HT, n = 12) [μA]",5-HT-evoked current amplitudes (m5-HT3A/ZAC; high-expressing half of the oocytes),5-HT-evoked current amplitudes (m5-HT3A/ZAC; low-expressing half of the oocytes),"Iresidual, 4 min (m5-HT3A/ZAC; [2])",Δtstart-to-peak (m5-HT3A/ZAC; [2]) [s],SMILES,concentration-response relationship compared to m5-HT3A/ZAC (m5-HT3A^FPR/ZAC),agonist-evoked current (hα1-Gly/ZAC-II),I1 mM Gly ± S.E.M. (hα1-Gly/ZAC) [μA],Imax (current amplitude evoked by saturating agonist) (WT hα1 GlyR) [μA],Δtpeak-to-plateau (WT hα1 GlyR) [s],Δtstart-to-peak (WT hα1 GlyR) [s]
2.92 ± 0.13,1.3 ± 0.3,~0 (none) % of Ipeak,2.1 ± 0.4,98 ± 12,0.60 ± 0.19,0.8–2.1 μA,0.1–0.2 μA,67 % of Ipeak and 67 ± 6 % of Ipeak,46 ± 7.2,"NCCc1c[nH]c2ccc(O)cc12 [5-HT, 5-hydroxytryptamine]",not significantly different,–,–,–,–,–
–,–,–,–,–,–,–,–,–,–,"NCC(=O)O [Gly, glycine]",–,did not induce significant responses,−0.0062 ± 0.0022,2.02 ± 0.24,52 ± 5.9,2.7 ± 0.3
